Experimental data reported in patent US8852656B2, “Sleep improvement composition” (Taiyokagaku Co., Ltd., priority 2004, dated 2014).

Experiments:
rat = settings: administered to a rat; cited from earlier work
[1] = reported, Patent Document 1; cited from earlier work
mice = format: in vivo; settings: oral administration of 5 g/kg
Description: In particular, theanine is known as a “umami” component of tea, is used as a food additive for providing flavor, and the Food Sanitation Law places no restrictions in addition amount.

For `CC/C=C\C/C=C\C/C=C\C/C=C\C/C=C\C/C=C\CCC(=O)O[C@H](COC(=O)CCCCCCC/C=C\CCCCCCCC)COP(=O)([O-])OCC[N+](C)(C)C` [1-oleoyl-2-DHA-sn-3-phosphocholine], the Effect on sleep (rat) is listed as “the total sleeping time within 24 hours, the REM sleeping time, and the REM sleeping time with respect to the total sleeping time are increased”.

For `C[C@@H]1CC[C@H]2C(C)(C)[C@H]3C[C@@]12CC[C@@]3(C)O` [cedrol], the Effect on sleep [1] is listed as “elongate the total sleeping time, shorten the sleep latency time, and increase the sleep efficiency”.

With `CCNC(=O)CC[C@H](N)C(=O)O` [theanine] the “Death in acute toxicity test” value (mice) was “no cases of death”.
